Among the data in ChEMBL document CHEMBL3045645, “Organophosphorus derivatives containing isatin-3-hydrazones as chemotherapeutants against fungal pathogens of sugarcane” (2008) are inhibition of growth, Ratio and MIC values, retold here.

Type in all cases: functional
Experiment [1] relates to Colletotrichum falcatum. As to the kind of experiment: Antifungal activity against Glomerella tucumanensis assessed as mycelial growth inhibition at 1000 ppm at 28 +/-2 degC after 7 days by food poison technique. The settings on record: 168 h, read-out: GI.
Experiment [2] deals with Curvularia pallescens. As to the kind of experiment: Antifungal activity against Cochliobolus pallescens assessed as mycelial growth inhibition at 100 ppm at 28 +/-2 degC after 7 days by food poison technique. The note with it: 168 h, read-out: GI.
The subject of experiment [3] is Fusarium oxysporum. As to the kind of experiment: Antifungal activity against Fusarium oxysporum assessed as mycelial growth inhibition at 10 ppm at 28 +/-2 degC after 7 days by food poison technique. The note with it: 168 h, read-out: GI.
The subject of experiment [4] is Curvularia pallescens. As to the kind of experiment: Antifungal activity against Cochliobolus pallescens assessed as mycelial growth inhibition at 1000 ppm at 28 +/-2 degC after 7 days by food poison technique. The settings on record: 168 h, read-out: GI.
Experiment [5] relates to Colletotrichum falcatum. As to the kind of experiment: Antifungal activity against Glomerella tucumanensis assessed as mycelial growth inhibition at 10 ppm at 28 +/-2 degC after 7 days by food poison technique. The note with it: 168 h, read-out: GI.
The test system of experiment [6] is Fusarium oxysporum. The experiment is described as follows: Antifungal activity against Fusarium oxysporum assessed as mycelial growth inhibition at 1000 ppm at 28 +/-2 degC after 7 days by food poison technique. The settings on record: 168 h, read-out: GI.
In experiment [7] the test system is Colletotrichum falcatum. The experiment is described as follows: Antifungal activity against Glomerella tucumanensis assessed as mycelial growth inhibition at 100 ppm at 28 +/-2 degC after 7 days by food poison technique. The settings on record: 168 h, read-out: GI.
In experiment [8] the test system is Fusarium oxysporum. The experiment is described as follows: Antifungal activity against Fusarium oxysporum assessed as mycelial growth inhibition at 100 ppm at 28 +/-2 degC after 7 days by food poison technique. The settings on record: 168 h, read-out: GI.
In experiment [9] the test system is Curvularia pallescens. As to the kind of experiment: Antifungal activity against Cochliobolus pallescens assessed as mycelial growth inhibition at 10 ppm at 28 +/-2 degC after 7 days by food poison technique. The note with it: 168 h, read-out: GI.
Experiment [10] concerns Fusarium oxysporum. As to the kind of experiment: Ratio of carbendazim MIC to compound MIC for Fusarium oxysporum after 7 days by food poison technique.
Experiment [11] has as its system Colletotrichum falcatum. The experiment is described as follows: Ratio of thiophanate MIC to compound MIC for Glomerella tucumanensis after 7 days by food poison technique.
For experiment [12], the system named is Colletotrichum falcatum. The experiment is described as follows: Ratio of carbendazim MIC to compound MIC for Glomerella tucumanensis after 7 days by food poison technique.
Experiment [13] relates to Fusarium oxysporum. As to the kind of experiment: Ratio of copper oxychloride MIC to compound MIC for Fusarium oxysporum after 7 days by food poison technique.
Experiment [14] relates to Fusarium oxysporum. The experiment is described as follows: Ratio of mancozeb MIC to compound MIC for Fusarium oxysporum after 7 days by food poison technique.
For experiment [15], the system named is Fusarium oxysporum. The experiment is described as follows: Antifungal activity against Fusarium oxysporum assessed as mycelial growth inhibition at 28 +/-2 degC after 7 days by food poison technique. The note with it: 168 h.
Experiment [16] concerns Curvularia pallescens. As to the kind of experiment: Ratio of mancozeb MIC to compound MIC for Cochliobolus pallescens after 7 days by food poison technique.
Experiment [17] deals with Colletotrichum falcatum. As to the kind of experiment: Ratio of mancozeb MIC to compound MIC for Glomerella tucumanensis after 7 days by food poison technique.
Experiment [18] relates to Curvularia pallescens. The experiment is described as follows: Ratio of thiophanate MIC to compound MIC for Cochliobolus pallescens after 7 days by food poison technique.
Experiment [19] has as its system Curvularia pallescens. The experiment is described as follows: Ratio of copper oxychloride MIC to compound MIC for Cochliobolus pallescens after 7 days by food poison technique.
The test system of experiment [20] is Colletotrichum falcatum. As to the kind of experiment: Antifungal activity against Glomerella tucumanensis assessed as mycelial growth inhibition at 28 +/-2 degC after 7 days by food poison technique. The note with it: 168 h.
Experiment [21] concerns Curvularia pallescens. As to the kind of experiment: Ratio of carbendazim MIC to compound MIC for Cochliobolus pallescens after 7 days by food poison technique.
Experiment [22] relates to Fusarium oxysporum. As to the kind of experiment: Ratio of thiophanate MIC to compound MIC for Fusarium oxysporum after 7 days by food poison technique.
Experiment [23] deals with Curvularia pallescens. The experiment is described as follows: Antifungal activity against Cochliobolus pallescens assessed as mycelial growth inhibition at 28 +/-2 degC after 7 days by food poison technique. The settings on record: 168 h.
Experiment [24] relates to Colletotrichum falcatum. As to the kind of experiment: Ratio of copper oxychloride MIC to compound MIC for Glomerella tucumanensis after 7 days by food poison technique.

In brackets after ≈: the same amount, converted by molar mass.

In the case of `CCOP(=O)(OCC)O/C(=N\N=C1/C(=O)Nc2ccccc21)c1ccccc1`, the results for the inhibition of growth at 1000 ppm in the experiment on Colletotrichum falcatum [1], with Curvularia pallescens [4] and in the experiment on Fusarium oxysporum [6] were 60.8%, 59.8% and 61.8%, respectively. Besides, the values for the inhibition of growth at 100 ppm in the experiment on Curvularia pallescens [2], with Colletotrichum falcatum [7] and with Fusarium oxysporum [8] were 49.2%, 49.4% and 50.4%, respectively. Moreover, the inhibition of growth at 10 ppm was found to be 41.2% in the experiment on Fusarium oxysporum [3], 40.3% with Colletotrichum falcatum [5] and 40.4% in the experiment on Curvularia pallescens [9].
With `CCOP(=S)(OCC)O/C(COc1ccc(Cl)cc1)=N\N=C1/C(=O)Nc2ccccc21`, the Ratio with Fusarium oxysporum [10], in the experiment with Colletotrichum falcatum [11], in the experiment on Colletotrichum falcatum [12], in the experiment on Fusarium oxysporum [13], in the experiment on Fusarium oxysporum [14] and with Curvularia pallescens [16] was 2 throughout. The Ratio with Colletotrichum falcatum [17], with Curvularia pallescens [18], in the experiment on Curvularia pallescens [19], in the experiment on Curvularia pallescens [21], in the experiment with Fusarium oxysporum [22] and in the experiment on Colletotrichum falcatum [24] was 2 each time. Moreover, the inhibition of growth at 1000 ppm with Colletotrichum falcatum [1], in the experiment on Curvularia pallescens [4] and in the experiment on Fusarium oxysporum [6] was 100% in each case. Further, the figures for the inhibition of growth at 100 ppm with Curvularia pallescens [2], with Colletotrichum falcatum [7] and in the experiment on Fusarium oxysporum [8] were 84.8%, 90.2% and 89.2%, respectively. Besides, the MIC with Fusarium oxysporum [15], in the experiment on Colletotrichum falcatum [20] and in the experiment on Curvularia pallescens [23] was 1000 µg/mL (≈ 2.08 mM) in each case. The inhibition of growth at 10 ppm in the experiment with Fusarium oxysporum [3] is 80%; in the experiment with Colletotrichum falcatum [5], 80.5%; in the experiment with Curvularia pallescens [9] it was 78.2%.
For `CCOP(=S)(OCC)O/C(COc1ccc(OP(=S)(OCC)OCC)cc1)=N\N=C1/C(=O)Nc2ccccc21`, the Ratio in the experiment on Fusarium oxysporum [10], in the experiment on Colletotrichum falcatum [11], with Colletotrichum falcatum [12], in the experiment on Fusarium oxysporum [13], with Fusarium oxysporum [14] and in the experiment on Curvularia pallescens [16] was 2 each time. Further, the Ratio in the experiment on Colletotrichum falcatum [17], with Curvularia pallescens [18], in the experiment on Curvularia pallescens [19], in the experiment with Curvularia pallescens [21], with Fusarium oxysporum [22] and in the experiment on Colletotrichum falcatum [24] was 2 throughout. Besides, the inhibition of growth at 1000 ppm in the experiment with Colletotrichum falcatum [1], with Curvularia pallescens [4] and in the experiment with Fusarium oxysporum [6] was 100% throughout. The inhibition of growth at 100 ppm is 80.5% in the experiment on Curvularia pallescens [2], 86.2% with Colletotrichum falcatum [7] and 82.6% in the experiment on Fusarium oxysporum [8]. Also, the MIC with Fusarium oxysporum [15], in the experiment on Colletotrichum falcatum [20] and in the experiment with Curvularia pallescens [23] was 1000 µg/mL (≈ 1.62 mM) each time. The inhibition of growth at 10 ppm in the experiment with Fusarium oxysporum [3] was 70.2%; with Colletotrichum falcatum [5] it was 75.1%; in the experiment on Curvularia pallescens [9], 68.6%.
With `COC(=O)Nc1nc2ccccc2[nH]1` [CARBENDAZIM], the MIC (commonly the least concentration at which growth counts as inhibited) in the experiment on Fusarium oxysporum [15] was determined as 3000 µg/mL (≈ 15.7 mM); with Colletotrichum falcatum [20], 4000 µg/mL (≈ 20.9 mM); in the experiment on Curvularia pallescens [23], 4000 µg/mL (≈ 20.9 mM).
Turning to `COC(=O)NC(=S)Nc1ccccc1NC(=S)NC(=O)OC` [THIOPHANATE METHYL], the minimal inhibitory concentration (MIC) with Fusarium oxysporum [15], with Colletotrichum falcatum [20] and in the experiment on Curvularia pallescens [23] was 4000 µg/mL (≈ 11.7 mM) throughout.
